# Measured values taken from US20080026996A1, “Selective Vpac2 Receptor Reptide Agonists” (ELI LILLY AND COMPANY, priority 2004, published 2008).
# Where no end group is shown, it is not given here.
# Biological target: T1, rat PAC1 receptor (Rattus norvegicus, UniProt P32215)
# T1 construct: expressed in transfected cells; host or cells: CHO cells, crude membranes
# T1 sequence (P32215 20-523): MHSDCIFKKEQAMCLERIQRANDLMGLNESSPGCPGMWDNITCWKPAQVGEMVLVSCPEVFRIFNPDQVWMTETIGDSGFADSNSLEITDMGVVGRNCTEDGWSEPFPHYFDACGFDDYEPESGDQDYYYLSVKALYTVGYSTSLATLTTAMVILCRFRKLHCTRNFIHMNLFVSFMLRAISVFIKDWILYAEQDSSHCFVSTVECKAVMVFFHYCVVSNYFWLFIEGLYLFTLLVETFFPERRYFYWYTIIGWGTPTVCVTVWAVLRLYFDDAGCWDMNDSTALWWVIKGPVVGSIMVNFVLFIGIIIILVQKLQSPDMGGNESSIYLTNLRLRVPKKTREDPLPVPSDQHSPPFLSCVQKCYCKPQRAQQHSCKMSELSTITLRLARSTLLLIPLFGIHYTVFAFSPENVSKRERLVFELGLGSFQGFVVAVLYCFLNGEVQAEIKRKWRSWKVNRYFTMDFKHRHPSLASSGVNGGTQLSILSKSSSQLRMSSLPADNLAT
# Assay: Adenylate cyclase assay on recombinant rat PAC1 receptor expressed in CHO cells
# Format: biochemical
substance,measurement,value
H-MHSDAVFTDNYTRLRKQVAAKKYLQSIKNKRYGGPSSGAPPPS [Agonist P104],potency ratio compared to PACAP-27,> 1000
